The supplement of paper PMC11208160

test: recombinant barcode read abundance after kanamycin selection (control-corrected) (log10(CPM+1)); higher = more efficient recombination; sequences stand for … in AGTGCAGAGAAAATCGGCCAGTTTTCTCTGCCTGCAGTCCGCATGCCGT…AGATTTATGCAGCGGACTGCCTTTCTCCCAAAGTGATAAACCGGACAGTATCATGGACCGGTTTTCCCGGTAATCCGTATTTGCAAGGTTGGTTTCACT; site = the 11-nt target
Summary of the method: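 A vector carrying a T7-inducible recombinase and the last 73 bp of the bridge RNA received, by Gibson cloning, oligos encoding a promoter, target, barcode and the first 104 bridge RNA bases under J23119. The pooled constructs entered E. coli together with a donor plasmid by electroporation. Selection used chloramphenicol/ampicillin/kanamycin with 0.1 mM IPTG, with chloramphenicol/ampicillin LB agar as the control, each in two replicates. Recombination efficiency is the averaged, control-corrected counts-per-million of barcodes at recombinant junctions, reported as log10(CPM+1).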
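Further: IS621 recombinase and bridge RNA in Escherichia coli cells.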

Row | Sequence | recombinant barcode read abundance (log10)
1 | AGCACAACTTGGGTTCTAACCTGTTGCCT (site AGCACAACTAG) | 0.734
2 | AGCACAACTTGGGTTCTAACCTGTTGCCT (site AGGACAACTAG) | 0.0445
3 | AGCACAACTTGGGTTCTAACCTGTTGCCT (site AGTACAACTAG) | 0.498
4 | AGCAGAGCTTGGGTTCTAACCTGTTGCAG (site AGCAGAGCTCA) | 0.631
5 | AGCAGAGCTTGGGTTCTAACCTGTTGCAG (site AGCAGAGCTCC) | 0.224
6 | AGCAGAGCTTGGGTTCTAACCTGTTGCAG (site AGCAGAGCTCG) | 0.505
7 | AGCAGAGCTTGGGTTCTAACCTGTTGCAG (site AGCAGAGCTCT) | 2.24
8 | AGCAGAGCTTGGGTTCTAACCTGTTGCCG (site AGCAGAGCTCA) | 0.0348
9 | AGCAGAGCTTGGGTTCTAACCTGTTGCCG (site AGCAGAGCTCC) | 0.058
10 | AGCAGAGCTTGGGTTCTAACCTGTTGCCG (site AGCAGAGCTCG) | 1.15
11 | AGCAGAGCTTGGGTTCTAACCTGTTGCCG (site AGCAGAGCTCT) | 0.465
12 | AGCAGTGCTTGGGTTCTAACCTGTTGCCT (site AGCAGTGCTAG) | 0.686
13 | AGCAGTGCTTGGGTTCTAACCTGTTGCCT (site AGCATTCCTAG) | 0.0332
14 | AGCATCCCTTGGGTTCTAACCTGTTGCTG (site AGCATCCCTCA) | 1.47
15 | AGCATCCCTTGGGTTCTAACCTGTTGCTG (site CATGCGACTAC) | 0.342
16 | AGCCACTCTTGGGTTCTAACCTGTTGCCT (site AGCCACACTAG) | 0.0426
17 | AGCCACTCTTGGGTTCTAACCTGTTGCCT (site AGCCACCCTAG) | 0.149
18 | AGCCACTCTTGGGTTCTAACCTGTTGCCT (site AGCCACGCTAG) | 0.153
19 | AGCCACTCTTGGGTTCTAACCTGTTGCCT (site AGCCACTCTAG) | 1.49
20 | AGCCAGGCTTGGGTTCTAACCTGTTGCGG (site AGCCAGGCTCC) | 1.76
21 | AGCCAGGCTTGGGTTCTAACCTGTTGCGG (site TCGTTTCCTAT) | 0.0575
22 | AGCCCTCCTTGGGTTCTAACCTGTTGCAG (site AGCCCTCCTCT) | 1.86
23 | AGCCCTCCTTGGGTTCTAACCTGTTGCAG (site GAAATAACTAC) | 0.114
24 | AGCCCTCCTTGGGTTCTAACCTGTTGCAT (site AGCCCTCCTAT) | 1.41
25 | AGCCCTCCTTGGGTTCTAACCTGTTGCAT (site AGCGCTCCTAC) | 0.0462
26 | AGCCCTCCTTGGGTTCTAACCTGTTGCTA (site AGCCCTCCTAA) | 0.0446

Row | Sequence | recombinant barcode read abundance (log10)
27 | AGCCCTCCTTGGGTTCTAACCTGTTGCTA (site AGCCCTCCTCA) | 0.449
28 | AGCCCTCCTTGGGTTCTAACCTGTTGCTA (site AGCCCTCCTGA) | 0.222
29 | AGCCCTCCTTGGGTTCTAACCTGTTGCTA (site AGCCCTCCTTA) | 1.37
30 | AGCCCTCCTTGGGTTCTAACCTGTTGCTG (site AGCCCTCCTAA) | 0.0691
31 | AGCCCTCCTTGGGTTCTAACCTGTTGCTG (site AGCCCTCCTCA) | 1.49
32 | AGCCCTCCTTGGGTTCTAACCTGTTGCTG (site AGCCCTCCTGA) | 0.109
33 | AGCCCTCCTTGGGTTCTAACCTGTTGCTG (site AGCCCTCCTTA) | 0.0866
34 | AGCCGAACTTGGGTTCTAACCTGTTGCCT (site AGCCGAACTAG) | 0.832
35 | AGCCGAACTTGGGTTCTAACCTGTTGCCT (site CGCCGAACTAG) | 0.11
36 | AGCCGAACTTGGGTTCTAACCTGTTGCCT (site GGCCGAACTAG) | 0.478
37 | AGCCGAACTTGGGTTCTAACCTGTTGCCT (site TGCCGAACTAG) | 0.0692
38 | AGCCTATCTTGGGTTCTAACCTGTTGCCA (site AGCCTATCTTG) | 0.101
39 | AGCCTATCTTGGGTTCTAACCTGTTGCCA (site CTAGCCGCTAA) | 0.109
40 | AGCCTTACTTGGGTTCTAACCTGTTGCCT (site AACCTTACTAG) | 0.106
41 | AGCCTTACTTGGGTTCTAACCTGTTGCCT (site ACCCTTACTAG) | 0.275
42 | AGCCTTACTTGGGTTCTAACCTGTTGCCT (site AGCCTTACTAG) | 0.171
43 | AGCCTTACTTGGGTTCTAACCTGTTGCCT (site ATCCTTACTAG) | 0.122
44 | AGCCTTGCTTGGGTTCTAACCTGTTGCCT (site AGCATTGCTAG) | 0.0195
45 | AGCCTTGCTTGGGTTCTAACCTGTTGCCT (site AGCCTTGCTAG) | 0.7
46 | AGCCTTGCTTGGGTTCTAACCTGTTGCCT (site AGCGTTGCTAG) | 0.566
47 | AGCCTTGCTTGGGTTCTAACCTGTTGCCT (site AGCTTTGCTAG) | 0.167
48 | AGCGAAGCTTGGGTTCTAACCTGTTGCCT (site AGCGAAGCTAG) | 0.382
49 | AGCGAAGCTTGGGTTCTAACCTGTTGCCT (site AGCGAGGCTAG) | 0.3
50 | AGCGAATCTTGGGTTCTAACCTGTTGCCT (site AGAGAATCTAG) | 0.0521
51 | AGCGAATCTTGGGTTCTAACCTGTTGCCT (site AGCGAATCTAG) | 0.719
52 | AGCGAATCTTGGGTTCTAACCTGTTGCCT (site AGGGAATCTAG) | 0.323

Row | Sequence | recombinant barcode read abundance (log10)
53 | AGCGAATCTTGGGTTCTAACCTGTTGCCT (site AGTGAATCTAG) | 0.158
54 | AGCGACCCTTGGGTTCTAACCTGTTGCGT (site AGCGACCCTAC) | 3.18
55 | AGCGACCCTTGGGTTCTAACCTGTTGCGT (site CGCGATCCTAC) | 0.16
56 | AGCGAGTCTTGGGTTCTAACCTGTTGCCT (site AACGAGTCTAG) | 0.951
57 | AGCGAGTCTTGGGTTCTAACCTGTTGCCT (site ACCGAGTCTAG) | 0.817
58 | AGCGAGTCTTGGGTTCTAACCTGTTGCCT (site AGCGAGTCTAG) | 2.08
59 | AGCGAGTCTTGGGTTCTAACCTGTTGCCT (site ATCGAGTCTAG) | 0.465
60 | AGCGCTACTTGGGTTCTAACCTGTTGCCT (site ACCGCTACTAG) | 0.121
61 | AGCGCTACTTGGGTTCTAACCTGTTGCCT (site AGCGCTACTAG) | 0.145
62 | AGCTAACCTTGGGTTCTAACCTGTTGCCT (site AGCTAACCTAG) | 0.407
63 | AGCTAACCTTGGGTTCTAACCTGTTGCCT (site AGTGAACCTAG) | 0.127
64 | AGCTACCCTTGGGTTCTAACCTGTTGCTT (site ACCTACTCTAA) | 0.0582
65 | AGCTACCCTTGGGTTCTAACCTGTTGCTT (site AGCTACCCTAA) | 0.62
66 | AGCTCCTCTTGGGTTCTAACCTGTTGCCT (site AGCTCCTCTAG) | 0.0883
67 | AGCTCCTCTTGGGTTCTAACCTGTTGCCT (site CGCTCCTCTAG) | 0.144
68 | AGCTCCTCTTGGGTTCTAACCTGTTGCCT (site GGCTCCTCTAG) | 0.0482
69 | AGCTCCTCTTGGGTTCTAACCTGTTGCCT (site TGCTCCTCTAG) | 0.0453
70 | AGCTCGTCTTGGGTTCTAACCTGTTGCGG (site AGCTCGTCTCC) | 0.448
71 | AGCTCGTCTTGGGTTCTAACCTGTTGCGG (site AGTTCGTCTCG) | 0.191
72 | AGCTGGGCTTGGGTTCTAACCTGTTGCCT (site AACTGGGCTAG) | 0.0885
73 | AGCTGGGCTTGGGTTCTAACCTGTTGCCT (site ACCTGGGCTAG) | 0.101
74 | AGCTGGGCTTGGGTTCTAACCTGTTGCCT (site AGCTGGGCTAG) | 0.235
75 | AGCTGGGCTTGGGTTCTAACCTGTTGCCT (site ATCTGGGCTAG) | 0.11
76 | AGCTTATCTTGGGTTCTAACCTGTTGCCT (site AGCTAAACTAG) | 0.131
77 | AGCTTATCTTGGGTTCTAACCTGTTGCCT (site AGCTTATCTAG) | 0.179
